Measurements from patent US9783551B2, “Pyranochromenyl phenol derivative, and pharmaceutical composition for treating metabolic syndrome or inflammatory disease” (GLACEUM, INC., priority 2013, dated 2017).

What was measured:
[1] = test system: C2C12 cells; assay: Glucose uptake (2-NBDG) in C2C12 cells; type: cell-based; details: 24 hours
Procedure: In terms of capacity of glucose uptake in C2C12 cells, the compound (Compound 15) of Example 14 of the present invention was compared with the existing Rosiglytazone and Metformin which were used or are currently used as a therapeutic agent for diabetes. The C2C12 cell was cultured in a Dulbecco's modified eagle medium (DMEM) supplemented with 10% fetal bovine serum (FBS), penicillin (120 unit/mL), and streptomycin (75 μg/mL), the medium used for differentiation was a DMEM medium supplemented with 1% horse serum, and the C2C12 cell was cultured in the DMEM medium for 4 days. The cell thus cultured was treated with Compound 15 in a low-glucose, serum-free medium supplemented with 2-[N-(7-nitrobenz-2-oxa-1,3-diazol-4-yl)amino]-2-deoxy-d-glucose (2-NBDG) for 24 hours to measure the glucose absorbance at an excitation wavelength of 485 nm and an emission wavelength of 535 nm using a fluorescent detector. The same experiment was performed on Rosiglytazone and Metformin.

[2] = test system: DIO mice; assay: Organ weights and blood biochemistry of DIO mice after 28 days of administration; type: in vivo, C57BL/6 mice; details: 150 mg/kg
Procedure: (§1) Five-week-old female C57BL/6 mice (Narabio Co., Ltd.) were purchased and fed with only high-fat diet for at least 10 weeks to produce diet induced obesity ([…]) mice. Samples were exactly taken from Preparation Example 1 (glabridin) and the compounds of Examples of the present invention (Compounds 1 to 5, 7, 9, 11, 14 to 16, 21, and 23) according to the administration dose and put into Falcon tubes, 3 ml of a 0.5% methyl cellulose aqueous solution was added thereto and a vortex mixer was used to primarily mix the ingredients in a soft manner, and then a homogenizer (30,000 rpm, Ultra-Turrax® T10 Basic, IKA) was used to treat the sample for 3 minutes while 1.5 ml of a 0.5% methyl cellulose aqueous solution was added thereto. The sample thus prepared was administered through oral gavage using a disposable plastic syringe once daily for 28 days (4 weeks). The body weight was measured twice a week while the DIO mice were bred in this manner. Based on the data thus calculated, the anti-obesity effect (%) was calculated according to the equation defined as follows. Anti-Obesity Effect={(Body weight of control group)−(Body weight of experimental group)}/(Body weight of control group)×100
After the experiment was performed for 28 days (4 weeks) as described above, blood was simultaneously taken while the experimental animal was finally sacrificed, and each of the organs (liver, heart, kidney, pancreas, fat tissues and the like) was removed to measure the weight and observe peculiar matters.
In Table 3, { }, ( ) and the like were used in order to differentiate experiments which had been performed at different periods. Experiments without the parenthesis were those simultaneously performed under the same conditions.

[3] = test system: BV2 microglia cells; assay: BV2 cell NO assay (LPS-induced NO production, Griess reagent); type: cell-based; details: Mus musculus, BV-2, LPS 1 μg/ml, 24 hours
Procedure: (§2) After the pretreatment, 0.5 mg/ml of the MTT (Sigma, M2128) reagent was further added thereto. After the cells were cultured in a 5% CO2 incubator, the supernatant was discarded, 150 μl of DMSO was added and was shaken for 30 minutes, and an ELISA micro plate reader (Bio Rad Laboratories Inc., California, USA, Model 680) was used to measure the absorbance at a wavelength of 540 nm. All the experimental values were calculated as an average value of three repeated experimental values of the cell protection rate for the control group, and an experiment of suppressing the NO production for each compound was carried out at a concentration in which no cytotoxicity was shown.
(§3) After the reaction, an ELISA micro plate reader (Bio Rad Laboratories Inc., California, USA, Model 680) was used to measure the absorbance at a wavelength of 540 nm. The suppression rate was calculated as a difference in amount of NO produced between the control group and the experimental group, and as shown in the following Table 6 and FIG. 6, Compounds 4, 5, 15, 16, 18, and the like of the present invention were excellent in the effect of suppressing the production of NO, and the effect is also about 5 times to about 9 times better than that of glabridin.

[4] = target: PTP1B (Homo sapiens (Human), UniProt P18031); assay: Experiment of PTP1B inhibition (p-NPP dephosphorylation); type: biochemical; details: 2 mM p-NPP substrate, 30° C., 30 minutes
From the text: With respect to PTP1B, the degrees of inhibition (IC50 The half maximal inhibitory concentration) of glabridin, and compounds of Preparation Example 2 (Compound 1), Example 2 (Compound 3), Example 3 (Compound 4), Example 4 (Compound 5), Example 13 (Compound 14), Example 14 (Compound 15), Example 15 (Compound 16), Example 17 (Compound 18), Example 18 (Compound 19) and Example 20 (Compound 21) were compared to each other. For this purpose, the degree of inhibition activity for PTP1B was investigated by using 2 mM p-nitrophenyl phosphate (p-NPP) as a substrate to measure the dephosphorylation degree. First, PTP1B diluted with distilled water was reacted with 2 mM p-nitrophenyl phosphate {p-NPP, 0.1 M NaCl, 1 mM EDTA, 50 mM citrate pH 6.0, and 1 mM dithiothreitol (DTT)} and Compound 1 at various concentrations at 30° C. for 30 minutes, and then the reaction was terminated with a 1 N-sodium hydroxide (NaOH) solution. The absorbance of the samples thus prepared was measured to confirm the inhibition degree (IC50: The half maximal inhibitory concentration) for PTP1B activity according to the concentration of Compound 1. Even for glabridin, Compound 3, Compound 4, Compound 5, Compound 14, Compound 15, Compound 16, Compound 18, Compound 19, and Compound 21, the same measurement was performed.

[5] = Chemical stability in 1% HCl in MeOH (HPLC); type: physicochemical
Procedure: (§4) The relative chemical stability of glabridin of Preparation Example 1, Example 3 (Compound 4), Example 4 (Compound 5) and Example 14 (Compound 15) were compared with each other. That is, 50 mg of each of glabridin, Compound 4, Compound 5, and Compound 15 was exactly weighed, dissolved in 50 ml of 1% HCl in MeOH and 10 ml of 1% NaOH in MeOH, and the concentrations of the compounds were examined by HPLC at each time level of 0, 8 hrs, 12 hrs, 24 hrs, 48 hrs, and 72 hrs. At this time, the concentrations of the compounds remaining in 1% HCl in MeOH and 1% NaOH in MeOH were determined using an internal standard (Compound 14 of Example 13). That is, 10 mg of Compound 14 was exactly weighed and dissolved in 100 ml of acetonitrile, 9 ml of this solution was mixed with 1 ml of the sample aliquoted at each time level, the mixture was analyzed by HPLC, and the concentrations of the compounds in the internal standard and in the above samples were determined by comparing the initial values.
(§5) The concentrations of the compounds remaining in 1% HCl in MeOH and 1% NaOH in MeOH at each time level are in the following Table 8 and FIG. 7 and the following Table 9 and FIG. 8, respectively.
(§6) The numerical values exceeding 100% in the following Tables 8 and 9 show those measured at a concentration is slightly higher than the initial measurement value, and this is due to the fact that an average value of the measured values was simply shown without considering a statistical error generated during the measurement. Since the measured value of about 95% or more is deemed to have practically no change in concentration, it may be seen that the compounds of the present invention are excellent in chemical stability.

[6] = test system: DIO mice; assay: Anti-obesity effect for DIO mice (body weight); type: in vivo, C57BL/6 mice; details: Mus musculus, 672 h; 4 weeks, 150 mg/kg, oral gavage once daily
Procedure: as §1

[7] = test system: RAW264.7 macrophages; assay: RAW264.7 macrophage NO assay (LPS-induced NO production, Griess reagent); type: cell-based; details: for IC50: Mus musculus, RAW264.7, NO production, LPS 1 μg/ml, 24 hours
Procedure: as §2, with “pretreatment,” for “pretreatment, 0.5 mg/ml of”, “reagent at a concentration of 0.5 mg/ml” for “reagent”, “incubator for 4 hours,” for “incubator,”
as §3, with “7,” for “6 and FIG. 6,”, “NO.” for “NO, and the effect is also about 5 times to about 9 times better than that of glabridin.”

[8] = Chemical stability in 1% NaOH in MeOH (HPLC); type: physicochemical
Procedure: as §4, §5, §6

Sequence of PTP1B (P18031 whole entry, species assumed): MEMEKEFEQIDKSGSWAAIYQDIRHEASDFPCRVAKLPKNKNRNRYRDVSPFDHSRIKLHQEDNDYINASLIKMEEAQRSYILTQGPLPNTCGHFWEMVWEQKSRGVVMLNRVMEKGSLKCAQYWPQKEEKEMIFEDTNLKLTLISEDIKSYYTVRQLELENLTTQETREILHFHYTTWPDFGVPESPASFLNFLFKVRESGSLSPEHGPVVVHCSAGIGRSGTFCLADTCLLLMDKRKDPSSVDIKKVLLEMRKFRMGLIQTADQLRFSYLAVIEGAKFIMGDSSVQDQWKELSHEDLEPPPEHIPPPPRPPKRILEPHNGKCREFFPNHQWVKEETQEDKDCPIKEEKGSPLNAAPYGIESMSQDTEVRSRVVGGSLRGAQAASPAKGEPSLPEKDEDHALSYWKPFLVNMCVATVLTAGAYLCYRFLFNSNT

Structure (SMILES)	IC50 [3]	IC50 [4]	concentration of compound remaining [5]; 0	concentration of compound remaining ([5]; 8 h)	concentration of compound remaining ([5]; 24 h)	concentration of compound remaining ([5]; 48 h)	concentration of compound remaining ([5]; 72 h)	inhibition in vivo at 150 mg/kg [6]	IC50 [7]	concentration of compound remaining [8]; 0	concentration of compound remaining ([8]; 8 h)	concentration of compound remaining ([8]; 24 h)	concentration of compound remaining ([8]; 48 h)	concentration of compound remaining ([8]; 72 h)	also measured
CN(CCOc1ccc(CC2SC(=O)NC2=O)cc1)c1ccccn1 (stereo not drawn) [Rosiglytazone]															2-NBDG uptake (Fold Induction) ([1]; treatment concentration 50 μM): 1.94 ± 0.15 Fold Induction
CC1(C)C=Cc2c(ccc3c2OC[C@@H](c2ccc(O)cc2O)C3)O1 [Glabridin, glabridin, reference compound]	19.6 µM	48 µM	100%	99%	94%	82%	74%	2%	9.3 µM	100%	71%	38%	23%	13%	ALT (U/L) ([2]; experiment without parenthesis): 41 U/L; AST (U/L) ([2]; experiment without parenthesis): 90 U/L; BMI ([2]; experiment without parenthesis): 4.2; FFA (μEq/L) ([2]; experiment without parenthesis): 1520 μEq/L; Fat (g), weight of fat removed around the epididymis and the kidney ([2]; experiment without parenthesis): 2.70 g; LDL ([2]; experiment without parenthesis): 10 mg/dL; Liver (g), weight of liver ([2]; experiment without parenthesis): 1.23 g; ALT (U/L) ([2]; { } experiment): {89} U/L; AST (U/L) ([2]; { } experiment): {170} U/L; BMI ([2]; { } experiment): {4.2}; FFA (μEq/L) ([2]; { } experiment): {1913} μEq/L; Fat (g), weight of fat removed around the epididymis and the kidney ([2]; { } experiment): {1.92} g; LDL (mg/dL) ([2]; { } experiment): {17} mg/dL; Liver (g), weight of liver ([2]; { } experiment): {1.48} g
CN(C)C(=N)N=C(N)N [Metformin]															2-NBDG uptake (Fold Induction) ([1]; treatment concentration 20 μM): 1.89 ± 0.03 Fold Induction
CCc1ccc(C2COc3c(ccc4c3CCC(C)(C)O4)C2)c(O)c1 (stereo not drawn) [Compound 4, 3-(2-hydroxy-4-ethylphenyl)-8,8-dimethyl-2,3,4,8,9,10-hexahydropyrano [2,3-f] chromene]	3.7 µM	2.9 µM	100%	99%	101%	101%	100%	18%	8.6 µM	100%	101%	101%	99%	100%	ALT (U/L) ([2]; ( ) experiment): (58) U/L; AST (U/L) ([2]; ( ) experiment): (209) U/L; BMI ([2]; ( ) experiment): (2.9); FFA (μEq/L) ([2]; ( ) experiment): (2380) μEq/L; Fat (g), weight of fat removed around the epididymis and the kidney ([2]; ( ) experiment): (1.20) g; LDL (mg/dL) ([2]; ( ) experiment): (18) mg/dL; Liver (g), weight of liver ([2]; ( ) experiment): (1.25) g; stability in words ([5]; until 3 days (72 hours)): very stable; effect of suppressing the production of NO ([7]; RAW264.7 macrophages, in words): excellent; stability in words ([8]; until 3 days (72 hours)): very stable
